The results in this text go back to patent publication US20200131129A1, “FARNESOID X RECEPTOR AGONISTS AND USES THEREOF” (Metacrine, Inc., priority 2017, published 2020).

Where only a bound is given, the exact number is not on record here.

The target of this assay is T1, hFXR (Homo sapiens, UniProt Q96RI1).
T1 construct: expressed in transfected cells; host or cells: CV-1 cells
T1 sequence (Q96RI1 1-486): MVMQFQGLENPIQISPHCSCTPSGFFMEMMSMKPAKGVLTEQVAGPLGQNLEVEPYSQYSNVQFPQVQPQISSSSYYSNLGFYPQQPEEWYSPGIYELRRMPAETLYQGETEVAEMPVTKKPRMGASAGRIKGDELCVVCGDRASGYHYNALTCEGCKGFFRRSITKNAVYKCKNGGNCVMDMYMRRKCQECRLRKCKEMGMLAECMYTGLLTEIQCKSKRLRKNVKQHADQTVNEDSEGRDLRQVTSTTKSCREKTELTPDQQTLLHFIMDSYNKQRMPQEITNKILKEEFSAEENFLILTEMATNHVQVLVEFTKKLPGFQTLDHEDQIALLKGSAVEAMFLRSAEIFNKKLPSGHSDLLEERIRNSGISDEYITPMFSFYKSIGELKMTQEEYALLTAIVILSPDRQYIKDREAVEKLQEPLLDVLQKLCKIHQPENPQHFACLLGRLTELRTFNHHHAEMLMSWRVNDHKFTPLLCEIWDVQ
T1 sequence (P19793 1-462 partner): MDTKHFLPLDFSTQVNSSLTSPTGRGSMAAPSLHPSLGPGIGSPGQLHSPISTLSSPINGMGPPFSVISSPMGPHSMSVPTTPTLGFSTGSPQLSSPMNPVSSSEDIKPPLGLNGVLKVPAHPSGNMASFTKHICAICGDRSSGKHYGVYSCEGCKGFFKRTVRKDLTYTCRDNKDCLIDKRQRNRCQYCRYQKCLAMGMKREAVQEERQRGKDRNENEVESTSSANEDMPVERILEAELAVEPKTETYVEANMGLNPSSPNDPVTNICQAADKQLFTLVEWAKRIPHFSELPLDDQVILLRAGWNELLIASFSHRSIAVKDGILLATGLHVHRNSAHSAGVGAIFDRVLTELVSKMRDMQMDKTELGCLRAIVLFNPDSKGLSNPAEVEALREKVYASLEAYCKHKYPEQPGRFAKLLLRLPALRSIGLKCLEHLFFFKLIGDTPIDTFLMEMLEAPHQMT
Description: In Vitro FXR Assay (TK): hFXR/hRXR TK-ECRE-luc reporter in transfected CV-1 cells. The following applies: CV-1 cells transfected with hFXR, hRXR, 18 hrs incubation, luminescence, maximum efficacy <25% of Fexarmine control also classified as ‘+’. Format: cell-based. A digest of the protocol: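 CV-1 cells in charcoal-stripped serum were transiently transfected with hFXR, hRXR, TK-ECRE-luc reporter and pCMX-YFP plasmids for 18 h at 37 °C. Serially diluted compounds were added for 18 h, then cells were lysed and luciferase luminescence read.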
What is called EC50 is the concentration that produces a half-maximal response. With `COc1ccc([C@H]2CC[C@@H](CN(c3cccc(-c4coc(C5CC5)n4)c3)C(=O)[C@H]3CC[C@H](O)CC3)CC2)nc1C` [Compound 10.10, trans-N-(3-(2-Cyclopropyloxazol-4-yl)phenyl)-4-hydroxy-N-((cis-4-(5-methoxy-6-methylpyridin-2-yl)cyclohexyl)methyl) cyclohexanecarboxamide], the EC50 is no less than 1000 nM.

The compound `COc1ccc([C@H]2CC[C@H](CN(c3cccc(-c4coc(C5CC5)n4)c3)C(=O)[C@H]3CC[C@H](O)CC3)CC2)cc1C#N` [Compound 10.11, trans-N-((trans-4-(3-Cyano-4-methoxyphenyl)cyclohexyl)methyl)-N-(3-(2-cyclopropyloxazol-4-yl)phenyl)-4-hydroxycyclohexanecarboxamide] had an EC50 of no more than 500 nM.

For `COc1ccc([C@H]2CC[C@H](CN(c3cc(-c4coc(C5CC5)n4)ccn3)C(=O)[C@H]3CC[C@H](O)CC3)CC2)cc1C#N` [Compound 10.12, trans-N-((trans-4-(3-Cyano-4-methoxyphenyl)cyclohexyl)methyl)-N-(4-(2-cyclopropyloxazol-4-yl)pyridine-2-yl)-4-hydroxycyclohexanecarboxamide], the EC50 is no more than 500 nM.

As for `COc1ccc([C@H]2CC[C@H](CN(c3cc(-c4coc(C(C)C)n4)ccn3)C(=O)[C@H]3CC[C@H](O)CC3)CC2)cc1C` [Compound 10.13, trans-4-Hydroxy-N-(4-(2-isopropyloxazol-4-yl)pyridine-2-yl)-N-((trans-4-(4-methoxy-3-methylphenyl)cyclohexyl)methyl) cyclohexanecarboxamide], the half-maximal effective concentration (EC50) was no more than 500 nM.

Take `COc1ccc([C@H]2CC[C@H](CN(c3cccc(-c4coc(C5CC5)n4)c3)C(=O)[C@H]3CC[C@H](O)CC3)CC2)nc1C#N` [Compound 10.14, trans-N-((trans-4-(6-Cyano-5-methoxypyridin-2-yl)cyclohexyl)methyl)-N-(3-(2-cyclopropyloxazol-4-yl)phenyl)-4-hydroxycyclohexanecarboxamide]: the concentration for a half-maximal effect (EC50) was no more than 500 nM.

Turning to `COc1ccc([C@H]2CC[C@H](CN(c3cccc(-c4ccc(N(C)C)nc4)c3)C(=O)[C@H]3CC[C@H](O)CC3)CC2)nc1C` [Compound 10.15, trans-N-(3-(6-(Dimethylamino)pyridine-3-yl)phenyl)-4-hydroxy-N-((trans-4-(5-methoxy-6-methylpyridin-2-yl)cyclohexyl)methyl) cyclohexanecarboxamide], the EC50 is no more than 500 nM.

`COc1cnc([C@H]2CC[C@H](CN(c3cccc(-c4coc(C5CC5)n4)c3)C(=O)[C@H]3CC[C@H](O)CC3)CC2)cc1C` [Compound 10.16, trans-N-(3-(2-Cyclopropyloxazol-4-yl)phenyl)-4-hydroxy-N-((trans-4-(5-methoxy-4-methylpyridin-2-yl)cyclohexyl)methyl) cyclohexanecarboxamide]: the 50% effective concentration (EC50) was in the range of 500 to 1000 nM.

The compound `COc1ccc([C@H]2CC[C@H](CN(c3cc(-c4coc(C(C)C)n4)ccn3)C(=O)[C@H]3CC[C@H](O)CC3)CC2)nc1C` [Compound 10.17, trans-4-Hydroxy-N-(4-(2-isopropyloxazol-4-yl)pyridine-2-yl)-N-((trans-4-(5-methoxy-6-methylpyridin-2-yl)cyclohexyl)methyl) cyclohexanecarboxamide] showed a half-maximal effective concentration (EC50) of no more than 500 nM.

`COc1ccc([C@H]2CC[C@H](CN(c3cc(-c4coc(C5CC5)n4)ccn3)C(=O)[C@H]3CC[C@H](O)CC3)CC2)nc1C#N` [Compound 10.19, trans-N-((trans-4-(6-Cyano-5-methoxypyridin-2-yl)cyclohexyl)methyl)-N-(4-(2-cyclopropyloxazol-4-yl)pyridine-2-yl)-4-hydroxycyclohexanecarboxamide] registered an EC50 of no more than 500 nM.

Compound `COc1ccc([C@H]2CC[C@H](CN(c3cccc(-c4coc(C(C)C)n4)c3)C(=O)[C@H]3CC[C@H](O)CC3)CC2)nc1C#N` [Compound 10.20, trans-N-((trans-4-(6-Cyano-5-methoxypyridin-2-yl)cyclohexyl)methyl)-4-hydroxy-N-(3-(2-isopropyloxazol-4-yl)phenyl)cyclohexanecarboxamide] registered a concentration giving a half-maximal response (EC50) of no more than 500 nM.

Regarding `Cn1ccc2cc([C@H]3CC[C@H](CN(c4cccc(-c5coc(C6CC6)n5)c4)C(=O)[C@H]4CC[C@H](O)CC4)CC3)ncc21` [Compound 10.21], the EC50 lay in the range of 500 to 1000 nM.

`CCc1nc(-c2ccnc(N(C[C@H]3CC[C@H](c4ccc(OC)c(C)n4)CC3)C(=O)[C@H]3CC[C@H](O)CC3)c2)co1` [Compound 10.22, trans-N-(4-(2-Ethyloxazol-4-yl)pyridin-2-yl)-4-hydroxy-N-((trans-4-(5-methoxy-6-methylpyridin-2-yl)cyclohexyl)methyl) cyclohexanecarboxamide] yielded an EC50 of no more than 500 nM.

Compound `COc1ncc([C@H]2CC[C@H](CN(c3cc(-c4coc(C5CC5)n4)ccn3)C(=O)[C@H]3CC[C@H](O)CC3)CC2)cc1C` [Compound 10.23, trans-N-(4-(2-Cyclopropyloxazol-4-yl)pyridin-2-yl)-4-hydroxy-N-((trans-4-(6-methoxy-5-methylpyridin-3-yl)cyclohexyl)methyl) cyclohexanecarboxamide] yielded an EC50 of no more than 500 nM.

The compound `COc1ncc([C@H]2CC[C@H](CN(c3cc(-c4coc(C5CC5)n4)ccn3)C(=O)[C@H]3CC[C@H](O)CC3)CC2)cc1Cl` [Compound 10.24, trans-N-((trans-4-(5-Chloro-6-methoxypyridin-3-yl)cyclohexyl)methyl)-N-(4-(2-cyclopropyloxazol-4-yl)pyridin-2-yl)-4-hydroxycyclohexanecarboxamide] registered an EC50 of no more than 500 nM.

In turn, `COc1ccc(C23CCC(CN(c4cccc(-c5coc(C6CC6)n5)c4)C(=O)[C@H]4CC[C@H](O)CC4)(CC2)CC3)cc1C` [Compound 10] returned an EC50 of no more than 500 nM.

`COc1ccc([C@H]2CC[C@H](CN(c3cccc(C#Cc4ncns4)c3)C(=O)[C@H]3CC[C@H](O)CC3)CC2)cc1C` [Compound 11, trans-N-(3-((1,2,4-Thiadiazol-5-yl)ethynyl)phenyl)-4-hydroxy-N-((trans-4-(4-methoxy-3-methylphenyl)cyclohexyl)methyl)cyclohexanecarboxamide] yielded a concentration for a half-maximal effect (EC50) of no more than 500 nM.

`COc1ccc([C@H]2CC[C@H](CN(c3cccc(C#Cc4ncco4)c3)C(=O)[C@H]3CC[C@H](O)CC3)CC2)cc1C` [Compound 11.01, trans-4-Hydroxy-N-((trans-4-(4-methoxy-3-methylphenyl)cyclohexyl)methyl)-N-(3-(oxazol-2-ylethynyl)phenyl)cyclohexanecarboxamide] registered an EC50 of no more than 500 nM.

`COc1ccc([C@H]2CC[C@H](CN(c3cccc(C#Cc4nncs4)c3)C(=O)[C@H]3CC[C@H](O)CC3)CC2)cc1C` [Compound 11.02, trans-N-(3-((1,3,4-Thiadiazol-2-yl)ethynyl)phenyl)-4-hydroxy-N-((trans-4-(4-methoxy-3-methylphenyl)cyclohexyl)methyl) cyclohexanecarboxamide]: the EC50 is no more than 500 nM.

`COc1ccc([C@H]2CC[C@H](CN(c3cccc(C#Cc4nnn(C)n4)c3)C(=O)[C@H]3CC[C@H](O)CC3)CC2)cc1C` [Compound 11.03, trans-4-Hydroxy-N-((trans-4-(4-methoxy-3-methylphenyl)cyclohexyl)methyl)-N-(3-((2-methyl-2H-tetrazol-5-yl)ethynyl)phenyl) cyclohexanecarboxamide] gave an EC50 of no more than 500 nM.

With `COc1ccc([C@H]2CC[C@H](CN(c3cccc(C#Cc4ccccn4)c3)C(=O)[C@H]3CC[C@H](O)CC3)CC2)cc1C` [Compound 11.04, trans-4-Hydroxy-N-((trans-4-(4-methoxy-3-methylphenyl)cyclohexyl)methyl)-N-(3-(pyridine-2-ylethynyl)phenyl)cyclohexanecarboxamide], the concentration for a half-maximal effect (EC50) was no more than 500 nM.

As to `COc1ccc([C@H]2CC[C@H](CN(c3cccc(C#Cc4ncn(C)n4)c3)C(=O)[C@H]3CC[C@H](O)CC3)CC2)cc1C` [Compound 12, trans-4-Hydroxy-N-((trans-4-(4-methoxy-3-methylphenyl)cyclohexyl)methyl)-N-(3-((1-methyl-1H-1,2,4-triazol-3-yl)ethynyl)phenyl)cyclohexanecarboxamide], the EC50 was no more than 500 nM.

With `COc1ccc([C@H]2CC[C@H](CN(c3cccc(C#Cc4cnn(C)n4)c3)C(=O)[C@H]3CC[C@H](O)CC3)CC2)cc1C` [Compound 12.01, trans-4-Hydroxy-N-((trans-4-(4-methoxy-3-methylphenyl)cyclohexyl)methyl)-N-(3-((2-methyl-2H-1,2,3-triazol-4-yl)ethynyl)phenyl)cyclohexanecarboxamide], the EC50 is no more than 500 nM.
